Data as given in patent publication US6313111A, “Substituted 6H-1,3,4-thiadiazine-2-amines, the use thereof as anaesthetising, cardiovascular and hypometabolic agents, and pharmaceutical composition containing them” (priority 1998, dated 2001).

Experiment: rectal (body) temperature of mice measured with medicinal electrothermometer TREM-1
Type: in vivo, mice of the BALB line
Experimental: In all cases tests were carried out on mice of the BALB line of 3-4 month age. […] In the case of water-soluble compounds, aqueous solutions of the test compounds were injected intraperitoneally (i.p.), while water-insoluble compounds were introduced orally (p.o.).
Rectal temperature changes (absolute magnitues in ° C.) were measured using a medicinal electrothermometer TREM-1 (Table 1). The rate of oxygen consumption was monitored by measuring concentration of oxygen in a closed testing unit with optic-acoustic gas analyser MN 5130. The data on oxygen consumption are given in percents relative to the starting content of oxygen taken as 100%. (Table 2).
Rectal temperature of mice was followed in dynamics after 5, 15, 30, 60, 120, 180, 240, 300, and 360 minutes (Table 3). […] The same decrease in temperature at 190 mg/kg dosage was reached after 15 minutes; in 1.5 hours it reached 22-25° C. and maintained this level over the next 5 hours, that is 13-17° C. below the initial value. After one day, body temperature was restored to the value of 94-96% of initial.

[1] = i.p., 0 min, mg/kg: cpd 1 190.0, cpd 2 178.0, cpd 5 190.0, cpd 6 160.0
[2] = i.p., 30 min, mg/kg: cpd 1 190.0, cpd 2 178.0, cpd 5 190.0, cpd 6 160.0
[3] = i.p., 60 min, mg/kg: cpd 1 190.0, cpd 2 178.0, cpd 5 190.0, cpd 6 160.0
[4] = i.p., 90 min, mg/kg: cpd 1 190.0, cpd 2 178.0, cpd 6 160.0
[5] = i.p., 120 min, mg/kg: cpd 1 190.0, cpd 2 178.0, cpd 5 190.0, cpd 6 160.0
[6] = i.p., 180 min, mg/kg: cpd 1 190.0, cpd 2 178.0, cpd 5 190.0, cpd 6 160.0
[7] = i.p., 240 min, mg/kg: cpd 1 190.0, cpd 2 178.0, cpd 5 190.0, cpd 6 160.0
[8] = i.p., 300 min, mg/kg: cpd 1 190.0, cpd 2 178.0, cpd 6 160.0
[9] = p.o., 0 min, mg/kg: cpd 4 437.0, cpd 5 328.0, cpd 6 407.0, cpd 8 435.0
[10] = p.o., 30 min, mg/kg: cpd 4 437.0, cpd 5 328.0, cpd 6 407.0, cpd 8 435.0
[11] = p.o., 60 min, mg/kg: cpd 4 437.0, cpd 5 328.0, cpd 6 407.0, cpd 8 435.0
[12] = p.o., 90 min, mg/kg: cpd 4 437.0, cpd 5 328.0, cpd 6 407.0
[13] = p.o., 120 min, mg/kg: cpd 4 437.0, cpd 5 328.0, cpd 7 407.0, cpd 8 435.0
[14] = p.o., 180 min, mg/kg: cpd 4 437.0, cpd 7 407.0, cpd 8 435.0
[15] = p.o., 240 min, mg/kg: cpd 4 437.0, cpd 7 407.0, cpd 8 435.0
[16] = p.o., 300 min, mg/kg: cpd 7 407.0, cpd 8 435.0

| SMILES | body temperature [1] [°C] | body temperature [2] [°C] | body temperature [3] [°C] | body temperature [4] [°C] | body temperature [5] [°C] | body temperature [6] [°C] | body temperature [7] [°C] | body temperature [8] [°C] | body temperature [9] [°C] | body temperature [10] [°C] | body temperature [11] [°C] | body temperature [12] [°C] | body temperature [13] [°C] | body temperature [14] [°C] | body temperature [15] [°C] | body temperature [16] [°C] |
| --- | --- | --- | --- | --- | --- | --- | --- | --- | --- | --- | --- | --- | --- | --- | --- | --- |
| CS(=O)(=O)O.c1ccc(C2=NN=C(N3CCOCC3)SC2)cc1 [Compound 2, 2-Morpholino-5-phenyl-6H-1,3,4-thiadiazine, mesilate] | 38.0 | 30.1 | 26.7 | 25.5 | 26.9 | 31.0 | 35.4 | 35.4 | – | – | – | – | – | – | – | – |
| Br.Brc1cccc(C2=NN=C(N3CCOCC3)SC2)c1 [Compound 4, 2-Morpholino-5-(3-bromophenyl)-6H-1,3,4-thiadiazine, hydrobromide] | – | – | – | – | – | – | – | – | 38.0 | 35.9 | 33.8 | 33.5 | 32.9 | 33.1 | 32.8 | – |
| Br.c1ccc(C2=NN=C(N3CCSCC3)SC2)cc1 [Compound 5, 2-Thiomorpholino-5-phenyl-6H-1,3,4-thiadiazine, hydrobromide] | 38.0 | 28.0 | 27.1 | – | 25.0 | 23.3 | 23.6 | – | 38.0 | 27.5 | 26.0 | 24.0 | 24.0 | – | – | – |
| CS(=O)(=O)O.c1ccc(C2=NN=C(N3CCSCC3)SC2)cc1 [Compound 6, 2-Thiomorpholino-5-phenyl-6H-1,3,4-thiadiazine, mesilate] | 37.9 | 30.6 | 26.9 | 26.3 | 25.8 | 27.4 | 28.9 | 30.9 | 37.7 | 34.0 | 33.4 | 32.6 | – | – | – | – |
| Br.CCOc1ccc(C2=NN=C(N3CCSCC3)SC2)cc1 [Compound 7, 2-Thiomorpholino-5-(4-ethoxyphenyl)-6H-1,3,4-thiadiazine, hydrobromide] | – | – | – | – | – | – | – | – | – | – | – | – | 33.5 | 32.3 | 30.6 | 30.6 |
| Br.Brc1cccc(C2=NN=C(N3CCSCC3)SC2)c1 [Compound 8, 2-Thiomorpholino-5-(3-bromophenyl)-6H-1,3,4-thiadiazine, hydrobromide] | – | – | – | – | – | – | – | – | 38.1 | 35.2 | 35.0 | – | 33.4 | 33.5 | 32.3 | 33.9 |
